Test results as given in patent US8378104B2 (OSI Pharmaceuticals, LLC, priority 2010, dated 2013).
Counter-ions that a name gives are not always drawn.

Legend:
[1] = system: p-p38 in HCT-116 cells; experiment: Phospho-p38 Meso Scale ELISA assay, TNFα-stimulated HCT-116 cells; assay type: cell-based; conditions: Homo sapiens, read-out: mean HCT-116 p-p38 ELISA IC50 (Col. C)
Protocol: Detailed below are ELISA assays for pJNK and p38, and a TAK1 biochemical assay. […] In Table 1, Col.
• 1. Plate HCT-116 cells at 25,000 per well in 100 uL in 96 well clear dishes in normal growth medium. Day 2: • 1. Aspirate medium and replace with 90 μl reduced serum growth medium (1% FCS), incubate for 2 hours at 37° C. • 2. Make drugs at 10× in reduced serum medium and add 10 uL per well. • 3. Incubate at 37° C. for 4 hrs. • 4. Bring capture plates to room temperature. • 5. Block with 150 μl Blocking Solution (provided with kit) (600 mg Blocker A into 20 mL 1× Wash Buffer per plate) at room temperature with shaking. • 6. Wash plates 4× with 200 μl 1× wash buffer (10× provided with kit) before transferring lysates. • 7. Dilute TNFα to […] in reduced serum medium (this makes a 10× working stock). • 8. Add 10 μl TNFα to all wells except negative control wells, final concentration is 10 ng/mL. • 9. Incubate at 37° C. for 10 minutes. • 10. Remove medium by flicking into sink • 11. Wash cells with 100 uL ice cold PBS. • 12. Remove PBS by flicking into sink and patting on paper towels. • 13. Lyse cells in 50 μl ice cold 1× Complete Lysis Buffer plus Phosphatase and Protease inhibitors (all provided with kit) (10 mL Tris Lysis Buffer+200 μl Protease inhibitor solution+100 μl Phosphatase inhibitor I+100 μl Phosphatase inhibitor II). • 14. Incubate with shaking at 4° C. for 30 minutes. • 15. Transfer 45 μl to capture plate, cover with adhesive cover, and incubate at 4° C. over night with shaking. • Day 3: • 1. Wash plates 4× with 200 μl 1× wash buffer (10× provided with kit). • 2. […] Incubate at room temperature with shaking for 1 hour. • 4. Wash 4× with 200 μl 1× Wash Buffer. • 5. […] Read on Sector Imager. Phospho-p38 Meso Scale ELISA Assay Day 1: • 1. Plate HCT-116 cells at 25,000 per well in 100 uL in 96 well clear dishes in normal growth medium. zday 2: • 1. Aspirate medium and replace with 90 μl reduced serum growth medium (1% FCS), incubate for 2 hours at 37° C. • 2. Make drugs at 10× in reduced serum medium and add 10 uL per well. • 3. Incubate at 37° C. for 4 hrs. • 4. Bring capture plates to room temperature. • 5. Block with 150 μl Blocking Solution (provided with kit) (600 mg Blocker A into 20 mL 1× Wash Buffer per plate) at room temperature with shaking. • 6. Wash plates 4× with 200 μl 1× wash buffer (10× provided with kit) before transferring lysates. • 7. Dilute TNFα to […] in reduced serum medium (this makes a 10× working stock). • 8. Add 10 μl TNFα to all wells except negative control wells, final concentration is 10 ng/mL. • 9. Incubate at 37° C. for 10 minutes. • 10. Remove medium by flicking into sink • 11. Wash cells with 100 uL ice cold PBS. • 12. Remove PBS by flicking into sink and patting on paper towels. • 13. Lyse cells in 50 μl ice cold 1× Complete Lysis Buffer plus phosphatase and protease inhibitors (all provided with kit) (10 mL Tris Lysis Buffer+200 μl Protease inhibitor solution+100 μl Phosphatase inhibitor I+100 μl Phosphatase inhibitor II). • 14. Incubate with shaking at 4° C. for 30 minutes. • 15. Dilute lysates before transferring to capture plate with 100 μl Complete p38 Lysate • Dilution Buffer (provided with kit) (10 mL of Diluent 20±200 μl Protease inhibitor solution+100 μl Phosphatase inhibitor I+100 μl Phosphatase inhibitor II). • 16. Transfer 50 μl of diluted lysates to capture plate, cover with adhesive cover, and incubate at 4° C. over night with shaking. Day 3: • 1. Wash plates 4× with 200 μl 1× wash buffer (10× provided with kit). • 2. […] Incubate at room temperature with shaking for 1 hour. • 4. Wash 4× with 200 μl 1× Wash Buffer. • 5. […] Read on Sector Imager. TAK1 Biochemical Assay

[2] = target: T1, TAK1-TAB1 fusion protein (Homo sapiens, UniProt O43318); experiment: TAK1 biochemical assay (AlphaScreen, GST-MAP2K7 substrate); conditions: TAK1-TAB1 fusion protein, GST-MAP2K7 substrate; read-out: mean TAK1 IC50 (Col. A)
T1 construct: purchased Carna
T1 sequence (O43318 with tags, fused parts or gaps limits assumed): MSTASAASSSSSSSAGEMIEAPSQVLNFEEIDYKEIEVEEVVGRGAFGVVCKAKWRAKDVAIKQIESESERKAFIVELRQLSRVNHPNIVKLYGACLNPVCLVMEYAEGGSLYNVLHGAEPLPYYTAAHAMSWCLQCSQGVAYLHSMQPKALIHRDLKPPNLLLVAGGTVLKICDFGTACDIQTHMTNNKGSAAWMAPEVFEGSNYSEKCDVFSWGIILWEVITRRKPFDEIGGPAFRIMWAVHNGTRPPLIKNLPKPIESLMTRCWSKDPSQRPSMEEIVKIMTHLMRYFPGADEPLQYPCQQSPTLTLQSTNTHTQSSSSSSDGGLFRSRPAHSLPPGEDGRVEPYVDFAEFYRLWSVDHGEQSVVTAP

[3] = system: pJNK in HCT-116 cells; experiment: Phospho-JNK (Thr183/Tyr185) Meso Scale ELISA assay, TNFα-stimulated HCT-116 cells; assay type: cell-based; conditions: Homo sapiens, read-out: mean HCT-116 pJNK ELISA IC50 (Col. B)
Method in brief: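 HCT-116 cells in 1% FCS medium were pretreated with compound for 4 hrs at 37° C, then stimulated with TNFα at 10 ng/mL final for 10 minutes. Lysates were taken in ice-cold lysis buffer with phosphatase and protease inhibitors, and phospho-JNK (Thr183/Tyr185) was measured by Meso Scale ELISA.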

| Compound | IC50 [1] [nM] | IC50 [2] [nM] | IC50 [3] [nM] |
| --- | --- | --- | --- |
| Nc1ncc(-c2cnn(C3CCN(CCO)CC3)c2)c2cc(-c3cccc4cnccc34)oc12 [Example 85, 2-(4-{-4-[7-amino-2-(isoquinolin-5-yl)furo[2,3-c]pyridin-4-yl]-1H-pyrazol-1-yl}piperidin-1-yl)ethanol] | 100 to 1000 | 100 to 1000 | 100 to 1000 |
| CC(=O)c1cccc(-c2cc3c(-c4cnn(C5CCN(C(C)=O)CC5)c4)cnc(N)c3o2)c1 [Example 124, 1-(4-{4-[2-(3-acetylphenyl)-7-aminofuro[2,3-c]pyridin-4-yl]-1H-pyrazol-1-yl}piperidin-1-yl)ethanone] | 1000 to 10000 | 1000 to 10000 | 100 to 1000 |
| CC(=O)N1CCC(n2cc(-c3cnc(N)c4oc(-c5cccc6nn(C)cc56)cc34)cn2)CC1 [Example 192, 1-(4-{4-[7-amino-2-(2-methyl-2H-indazol-4-yl)furo[2,3-c]pyridin-4-yl]-1H-pyrazol-1-yl}piperidin-1-yl)ethanone] | 1000 to 10000 | 1000 to 10000 | 1000 to 10000 |
| Nc1ncc(-c2cnn([C@@H]3C[C@@H](O)[C@@H](O)C3)c2)c2cc(-c3csc4cnccc34)oc12 [Example 311, rel-(1R,2S,4S)-4-[4-(7-amino-2-thieno[2,3-c]pyridin-3-yl-furo[2,3-c]pyridin-4-yl)-pyrazol-1-yl]-cyclopentane-1,2-diol] | 100 to 1000 | < 100 | 100 to 1000 |
| Nc1ncc(-c2cn[nH]c2)c2cc(-c3cccc4cnccc34)oc12 [Example 69, 2-(isoquinolin-5-yl)-4-(1H-pyrazol-4-yl)furo[2,3-c]pyridin-7-amine] | 100 to 1000 | 1000 to 10000 | 100 to 1000 |
| CC(=O)N1CCC(n2cc(-c3cnc(N)c4oc(-c5cccc6[nH]ncc56)cc34)cn2)CC1 [Example 177, 1-(4-{4-[7-amino-2-(1H-indazol-4-yl)furo[2,3-c]pyridin-4-yl]-1H-pyrazol-1-yl}piperidin-1-yl)ethanone] | 100 to 1000 | < 100 | 100 to 1000 |
| CC(=O)N1CCC(n2cc(-c3cnc(N)c4oc(-c5ccc6[nH]ccc6c5)cc34)cn2)CC1 [Example 92, 1-(4-{4-[7-amino-2-(1H-indol-5-yl)furo[2,3-c]pyridin-4-yl]-1H-pyrazol-1-yl}piperidin-1-yl)ethanone] | 100 to 1000 | 1000 to 10000 | 100 to 1000 |
| CS(=O)(=O)CCN1CCC(n2cc(-c3cnc(N)c4oc(-c5cccc6cnccc56)cc34)cn2)CC1 [Example 82, 2-(isoquinolin-5-yl)-4-(1-{1-[2-(methylsulfonyl)ethyl]piperidin-4-yl}-1H-pyrazol-4-yl)furo[2,3-c]pyridin-7-amine] | 100 to 1000 | 100 to 1000 | 100 to 1000 |
| CC(=O)N1CCC(n2cc(-c3cnc(N)c4oc(-c5cncc6cnsc56)cc34)cn2)CC1 [Example 262, 1-(4-{4-[7-amino-2-([1,2]thiazolo[4,5-c]pyridin-7-yl)furo[2,3-c]pyridin-4-yl]-1H-pyrazol-1-yl}piperidin-1-yl)ethanone Diformate Salt] | 100 to 1000 | 100 to 1000 | 100 to 1000 |
| CC(=O)N1CCC(n2cc(-c3cnc(N)c4oc(-c5ccc6c(c5)CCC(=O)N6)cc34)cn2)CC1 [Example 154, 6-{4-[1-(1-acetylpiperidin-4-yl)-1H-pyrazol-4-yl]-7-aminofuro[2,3-c]pyridin-2-yl}-3,4-dihydroquinolin-2(1H)-one] | 1000 to 10000 | 100 to 1000 | 1000 to 10000 |
| Nc1ncc(-c2cnn([C@H]3CC[C@H](O)CC3)c2)c2cc(-c3cncc4cnsc34)oc12 [Example 267, trans-4-{4-[7-amino-2-([1,2]thiazolo[4,5-c]pyridin-7-yl)furo[2,3-c]pyridin-4-yl]-1H-pyrazol-1-yl}cyclohexanol Diformate Salt] | 100 to 1000 | 100 to 1000 | < 100 |
